*1 amine or outer side, *2 acyl side, *3 side chain or, on linkers, in order; H or OH if unused. Where a SMILES comes first, the peptide text is derived from it. Bridges are numbered along the chain shown (N, C = ends). X1 = O=C(CCC[*:2])[*:1]
Columns and labels:
[1] = system: differentiated 3T3-L1 adipocytes; assay: Lipid metabolism in differentiated 3T3-L1 adipocytes in vitro; assay type: cell-based, Murine; conditions: incubated in the presence of OEA
Method: The in vitro effect of OT on lipid metabolism in differentiated 3T3-L1 adipocytes was assayed as follows. Murine 3T3-L1 fibroblasts were differentiated towards a […] phenotype as previously described (Olson et al., 1997, Mol. Cell. Biol., 2425-2435). In brief, cells were cultured in Dulbecco's modified eagle medium (DMEM) with 4.5 g/l glucose supplemented with 10% heat-inactivated depleted calf serum (DCS) at 37° C./8% CO2. Cells were induced to differentiate, two days post confluence, by sequential incubations with: DMEM 4.5 g/l glucose, 10% fetal bovine serum (FCS) containing 1 μg/ml insulin, 0.25 μM dexamethasone and 0.5 mM isobutylmethylxanthane (IBMX) for 4 days; DMEM 4.5 g/l glucose, 10% FCS containing insulin alone for an additional 4 days; DMEM 4.5 g/l glucose, 10% FCS for 3-4 days. Differentiation was considered achieved when more than 90% of cells display an accumulation of large lipid droplets in their cytoplasm.

[2] = system: HFD-induced obese rats; assay: High-fat diet-induced obesity rat model, subcutaneous infusion: body weight gain, food intake, body composition; assay type: in vivo; conditions: for food intake / body weight gain: 14 days; for body weight gain: not observed in pair-fed group
Method: Another group of the above male Wistar rats were rendered obese as described above and were subcutaneously infused with saline or OT (NeoMPS®, Strasbourg, France) (50 nmol/day/rat) during 14 days.
The beneficial metabolic effects of OT administration were assayed in the same high-fat diet induced obesity model in rats as in Example 1 and in PPAR-alpha knockout mice (Lee et al., 1995, Mol. Cell. Biol., 15(6):3012-22). HFD-induced obese animals, saline or OT groups (see conditions under Example 1) were subcutaneously infused via minipumps (Alzet®, as above). OT was delivered at a dose of 50 nmol/day/rat during 14 days.
An EchoMRI-700 quantitative nuclear magnetic resonance (QMR) analyzer (Echo Medical Systems, Houston, Tex.) was used to measure total fat mass and lean body mass in rats at the beginning and the end of the treatment.
The beneficial metabolic effects of administration of an oxytocin derivative according to the invention (Carbetocin) were assessed in the same rat model of high-fat diet induced obesity as in Example 1. HFD-induced obese animals were subcutaneously infused via minipumps (Alzet®, as above) with saline or carbetocin (Bachem) (5 nmol/day/rat or 50 nmol/day/rat) during 14 days.
Body composition parameters were measured by quantitative nuclear magnetic resonance as described in Example 3 at the beginning and 10 days of treatment.

How did the “mRNA expression of PPAR-alpha” value [1] turn out when `CCCCCCCC/C=C\CCCCCCCC(=O)NCCO` [OEA, Oleoylethanolamide] was run?
Its value is “induce”.

And the “mRNA expression of most of the PPAR-alpha related genes (Acadm, Acox1, Ehhadh, Ucp3)” value [1]?
The value was “induce”.

Which food intake ([2]; s.c. 5 nmol/day) does the source give for `CC[C@H](C)[C@@H]1NC(=O)[C@H](Cc2ccc(OC)cc2)NC(=O)CCCSC[C@@H](C(=O)N2CCC[C@H]2C(=O)N[C@@H](CC(C)C)C(=O)NCC(N)=O)NC(=O)[C@H](CC(N)=O)NC(=O)[C@H](CCC(N)=O)NC1=O` [carbetocin, Butyryl-Tyr(Me)-Ile-Gln-Asn-Cys-Pro-Leu-Gly-NH2] (Y(Me)IQNCPLG-NH2; linker N-5 via X1) here?
The food intake was “decreased”.

And the body weight gain ([2]; s.c. 5 nmol/day)?
The body weight gain was “decreased”.

And the food intake ([2]; s.c. 50 nmol/day)?
Its food intake is “decreased”.

What about the body weight gain ([2]; s.c. 50 nmol/day) of the same molecule?
The body weight gain was “decreased”.

And the “fat mass (QMR)” value ([2]; s.c. carbetocin (5 nmol/d and 50 nmol/d groups), 10 days, independent of food intake)?
The value was “significant decrease”.

— patent US9101569B2, “Methods for the treatment of insulin resistance” (UNIVERSITE DE GENEVE, priority 2010, dated 2015)
